Measured values as given in article PMC10372922 (Acta Pharmaceutica Sinica. B, 2023).

Target: T1, TGF-β receptor type-1 (TGFβR1) (Homo sapiens, UniProt P36897)
T1 sequence (P36897 200-503 limits assumed): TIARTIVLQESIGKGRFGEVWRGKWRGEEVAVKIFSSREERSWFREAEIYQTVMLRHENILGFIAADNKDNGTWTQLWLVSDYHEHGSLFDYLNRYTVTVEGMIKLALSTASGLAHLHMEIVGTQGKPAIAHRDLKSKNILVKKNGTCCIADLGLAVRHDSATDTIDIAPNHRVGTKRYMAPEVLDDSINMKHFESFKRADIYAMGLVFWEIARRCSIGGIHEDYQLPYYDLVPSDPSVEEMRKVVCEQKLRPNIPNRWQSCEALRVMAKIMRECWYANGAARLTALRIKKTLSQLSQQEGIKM
Assay: SPR
Type: binding

Q: Which Kd does the source give for `CC(=O)O[C@@H]1C[C@H](O)[C@@]23COC(O)C1(C)[C@@H]2C[C@@H](O)[C@@]1(C)[C@@H]2C(=O)C[C@@H](c4ccoc4)[C@]2(C)[C@@H](OC(C)=O)C(=O)[C@@H]13` (stereo partly shown) [ITSN, Isotoosendanin] here?
A: 24 µM
